Converted amounts (≈) assume the structure as drawn.
Key:
[1] = system: Fluoroquinolone Sensitive Strains; experiment: In-vitro antimicrobial test (MIC, two-fold serial agar dilution, NCCLS), Table 17; assay type: cell-based; settings: for MICs: hydrochloride
Procedure: (§1) The test method was in accordance with the standard NCCLS protocol (Methods for Dilution Antimicrobial Susceptibility Tests for Bacteria that grow Aerobicially, Approved Standards, M7-A5, Fifth Edition, January 2000).
(§2) The antibacterial activities (minimum inhibitory concentration: MIC, […]) were determined by using the two-fold serial agar dilution method recommended by NCCLS. The media used for preculture and main culture were Tryptic Soya broth (Difco) and Mueller Hinton medium (Difco), respectively. The Mueller Hinton agar was supplemented with 5% sheep blood for streptococci. Overnight cultures were diluted with buffered saline (pH 7.2) to the final cell density of 5×10^6-10^7 CFU/ml, and each bacterial suspension was applied with a replicator (Denley's multipoint inoculator, UK) onto a series of Mueller-Hinton agar plates containing antibacterial agents at various concentrations. Final inoculum was approximately 10^4 CFU/spot. The plates were incubated for 18 hrs at 37° C. The MIC was defined as the lowest concentration of an antibacterial agent that inhibits the development of visible microbial growth on agar.

J 744 (mouse macrophage) = experiment: Cytotoxicity test (Alamar blue), J 744 cells, Table 23; assay type: cell-based; settings: 3 hrs drug exposure, further 96 hrs incubation, hydrochloride
Procedure: Compounds were evaluated for their cytotoxic potential against two celllines viz. […] Cytotoxic drugs inhibit this reaction resulting into blue coloured well. Minimum drug concentration inhibiting Alamar blue color change i.e. resulting into blue coloured wells for a given drug is considered cytotoxic concentration.

[2] = system: Fluoroquinolone-Resistant Strains; experiment: In-vitro antimicrobial test (MIC, two-fold serial agar dilution, NCCLS), Table 18; assay type: cell-based; settings: hydrochloride
Procedure: as §1, §2

[3] = system: V79 (Chinese Hamster Lung); experiment: Cytotoxicity test (Alamar blue), V79 cells, Table 23; assay type: cell-based; settings: 3 hrs drug exposure, further 96 hrs incubation, hydrochloride
Procedure: Compounds were evaluated for their cytotoxic potential against two […] viz. […] Cells were grown for 3-4days in a culture flask using D-MEM (Dulbecco's Modified Eagle. […] Freshly grown cells were distributed in microtiter plates at a cell density of 10^5-10^6 cells/well and allowed to […] form monolayer by incubating the microtiter plate at […] for 24 hrs. […] Following 3 hrs. of drug exposure, cell were washed with D-MEM and incubated further for 96 hrs. Cytotoxic effects of drugs were monitored through daily microscopic observation and by ascertaining the metabolic status through redox indicator Alamar blue. Healthy actively metabolising cells bring about colour change of Alamar blue from blue to pink within an overnight incubation. Cytotoxic drugs inhibit this reaction resulting into blue coloured well. Minimum drug concentration inhibiting Alamar blue color change i.e. resulting into blue coloured wells for a given drug is considered cytotoxic concentration.

[4] = Escherichia coli, ATCC25922, E. coli ATCC 25922
[5] = Staphylococcus aureus, ATCC 25923 / MSSA, MSSA ATCC 25923
[6] = Streptococcus pneumoniae, ATCC49619, S. pneumoniae ATCC 49619

| Structure (SMILES) | melting point [°C] | also measured |
| --- | --- | --- |
| Cc1c(N2CCC(N)C(C)(C)C2)c(F)cc2c(=O)c(C(=O)O)cn(C3CC3)c12.Cl (single isomer, unassigned; (+)) [Compound 106, (+)-1-Cyclopropyl-6-fluoro-1,4-dihydro-8-methyl-7-(4-amino-3,3-dimethyl-1-piperidinyl)-4-oxo-quinoline-3-carboxylic acid hydrochloride] |  | MICs ([1]; E. faecalis ATCC 29212): 0.2 µg/mL; MIC [1, 4]: 0.05 µg/mL; MICs ([1]; P. aeruginosa 27853): 6.25 µg/mL; MICs ([1]; S. pneumoniae ATCC 49619): 0.1 µg/mL; MIC ([1]; S. sanguis ATCC 10556 (Viridans Streptococci group)): 0.1 µg/mL; MIC [1, 5]: 0.025 µg/mL; Cytotoxic concentration, J 744 Macrophage (J 744 (mouse macrophage)): >1000 µg/mL; MICs ([2]; Cipro^R S. mitis 938): 6.25 µg/mL; MICs ([2]; Cipro^R S. sanguis 941): 6.25 µg/mL; MICs ([2]; FQ^R S. pneumoniae 718): 1.56 µg/mL; MICs ([2]; MRSA 032): 1.56 µg/mL; Cytotoxic concentration, V 79 CHL [3]: >1000 µg/mL |
| Cc1c(N2CC[C@H](N)[C@H](C)C2)c(F)cc2c(=O)c(C(=O)O)cn(C3CC3)c12 (relative stereo) [Compound 99, cis-1-Cyclopropyl-6-fluoro-1,4-dihydro-8-methyl-7-(4-amino-3-methyl-1-piperidinyl)-4-oxo-quinoline-3-carboxylic acid] | 224 to 228 |  |
| Cc1c(N2CCC(N)C(C)(C)C2)c(F)cc2c(=O)c(C(=O)O)cn(C3CC3)c12.Cl (racemic) [Example 97] | 242 to 244 |  |
| CCC1(C)CN(c2c(F)c(N)c3c(=O)c(C(=O)O)cn(C4CC4)c3c2OC)CCC1NC (stereo not drawn) [Compound 78, 5-Amino-1-cyclopropyl-6-fluoro-1,4-dihydro-8-methoxy-7-(4-methylamino-3-ethyl-3-methyl-1-piperidinyl)-4-oxo-quinoline-3-carboxylic acid] | 164 to 166 |  |
| COc1c(N2CCC(N)C(C)(C)C2)c(F)c(N)c2c(=O)c(C(=O)O)cn(C3CC3)c12 (stereo not drawn) [Compound 68, 5-Amino-1-cyclopropyl-6-fluoro-1,4-dihydro-8-methoxy-7-(4-amino-3,3-dimethyl-1-piperidinyl)-4-oxo-quinoline-3-carboxylic acid] | 205 |  |
| CCOC(=O)NC1CCN(c2c(F)cc3c(=O)c(C(=O)O)cn(C4CC4)c3c2OC)CC1(C)C (stereo not drawn) [Compound 30, 1-Cyclopropyl-6-fluoro-1,4-dihydro-8-methoxy-7-(4-carbethoxyamino-3,3-dimethyl-1-piperidinyl)-4-oxo-quinoline-3-carboxylic acid] | 222 | MIC [1, 4]: 0.05 µg/mL (≈ 0.105 µM); MIC [1, 5]: 0.05 µg/mL (≈ 0.105 µM); MIC [1, 6]: 0.1 µg/mL (≈ 0.21 µM) |
| CNC1C(C)CN(c2c(F)cc3c(=O)c(C(=O)O)cn(C4CC4)c3c2OC)CC1C (stereo not drawn) [Compound 45, 1-Cyclopropyl-6-fluoro-1,4-dihydro-8-methoxy-7-(4-methylamino-3,5-dimethyl-1-piperidinyl)-4-oxo-quinoline-3-carboxylic acid] | 268 to 272 |  |
| COc1c(N2CCC(O)C(C)C2)c(F)c(N)c2c(=O)c(C(=O)O)cn(C3CC3)c12 (stereo not drawn) [Compound 135, 5-Amino-1-cyclopropyl-6-fluoro-1,4-dihydro-8-methoxy-7-(4-hydroxy-3-methyl-1-piperidinyl)-4-oxo-quinoline-3-carboxylic acid] | 240 to 244 |  |
| COc1c(N2CCC(N(C)C)C(C)C2)c(F)c(N)c2c(=O)c(C(=O)O)cn(C3CC3)c12 (stereo not drawn) [Compound 63, 5-Amino-1-cyclopropyl-6-fluoro-1,4-dihydro-8-methoxy-7-(4-dimethylamino-3-methyl-1-piperidinyl)-4-oxo-quinoline-3-carboxylic acid] | 210 |  |
| COc1c(N2CCC(NC3CC3)C(C)C2)c(F)c(N)c2c(=O)c(C(=O)O)cn(C3CC3)c12 (stereo not drawn) [Compound 62, 5-Amino-1-cyclopropyl-6-fluoro-1,4-dihydro-8-methoxy-7-(4-cyclopropylamino-3-methyl-1-piperidinyl)-4-oxo-quinoline-3-carboxylic acid] | 218 to 220 |  |
| COc1c(N2CC(C)C(N)C(C)C2)c(F)cc2c(=O)c(C(=O)O)cn(C3CC3)c12 (stereo not drawn) [Compound 44, 1-Cyclopropyl-6-fluoro-1,4-dihydro-8-methoxy-7-(4-amino-3,5-dimethyl-1-piperidinyl)-4-oxo-quinoline-3-carboxylic acid] | 178 to 180 |  |
| Cc1c(N2CCC(N)C(C)(C)C2)c(F)cc2c(=O)c(C(=O)O)cn(C3CC3)c12 (single isomer, unassigned; (-)) [Compound 109, (−)-1-Cyclopropyl-6-fluoro-1,4-dihydro-8-methyl-7-(4-amino-3,3-dimethyl-1-piperidinyl)-4-oxo-quinoline-3-carboxylic acid] | 195 to 198 |  |
| COc1c(N2CCC(NC(=O)OCc3ccccc3)C(C)(C)C2)c(F)cc2c(=O)c(C(=O)O)cn(C3CC3)c12 (racemic) [Compound 32, (±)-1-Cyclopropyl-6-fluoro-1,4-dihydro-8-methoxy-7-(4-benzyloxycarbonylamino-3,3-dimethyl-1-piperidinyl)-4-oxo-quinoline-3-carboxylic acid] | 158 to 160 |  |

Further lines, with some results ahead:

| melting point [°C] | Structure (SMILES) | also measured |
| --- | --- | --- |
| 221 | Cc1c(N2CCC(N(C)C)C(C)C2)c(F)cc2c(=O)c(C(=O)O)cn(C3CC3)c12 (stereo not drawn) [Compound 114, 1-Cyclopropyl-6-fluoro-1,4-dihydro-8-methyl-7-(4-dimethylamino-3-methyl-1-piperidinyl)-4-oxo-quinoline-3-carboxylic acid] | MIC [1, 4]: 0.05 µg/mL (≈ 0.125 µM); MIC [1, 5]: 0.05 µg/mL (≈ 0.125 µM); MIC [1, 6]: 0.05 µg/mL (≈ 0.125 µM) |
| 248 to 249 | CCc1c(N2CCC(N)CC2)c(F)cc2c(=O)c(C(=O)O)cn(C3CC3)c12 [Compound 117, 1-Cyclopropyl-6-fluoro-8-ethyl-7-(4-amino-1-piperidinyl)-1,4-dihydro-4-oxo-quinoline-3-carboxylic acid] |  |
| 240 to 242 | COc1c(N2CC[C@@H](N)[C@H](C)C2)c(F)cc2c(=O)c(C(=O)O)cn(C3CC3)c12 (relative stereo) [Compound 2, trans-1-Cyclopropyl-6-fluoro-1,4-dihydro-8-methoxy-7-(4-amino-3-methyl-1-piperidinyl)-4-oxo-quinoline-3carboxylic acid] |  |
| 182 to 184 | CCC1(C)CN(c2c(F)cc3c(=O)c(C(=O)O)cn(C4CC4)c3c2OC)CCC1NC (stereo not drawn) [Compound 40, 1-Cyclopropyl-6-fluoro-1,4-dihydro-8-methoxy-7-(4-methylamino-3-ethyl-3-methyl-1-piperidinyl)-4-oxo-quinoline-3-carboxylic acid] |  |
| 246 to 248 | CNC1CCN(c2c(F)cc3c(=O)c(C(=O)O)cn(C4CC4)c3c2OC)CC1(C)C (stereo not drawn) [Compound 35, 1-Cyclopropyl-6-fluoro-1,4-dihydro-8-methoxy-7-(4-methylamino-3,3-dimethyl-1-piperidinyl)-4-oxo-quinoline-3-carboxylic acid] |  |
| 180 to 182 | COc1c(N2CCC(N(C)C)C(C)C2)c(F)cc2c(=O)c(C(=O)O)cn(C3CC3)c12 (stereo not drawn) [Compound 13, 1-Cyclopropyl-6-fluoro-1,4-dihydro-8-methoxy-7-(4-dimethylamino-3-methyl-1-piperidinyl)-4-oxo-quinoline-3-carboxylic acid] |  |
| 238 to 240 | COc1c(N2CCC(N)C(C)C2)c(F)cc2c(=O)c(C(=O)O)cn(C3CC3)c12 (stereo not drawn) [Compound 1, 1-Cyclopropyl-6-fluoro-1,4-dihydro-8-methoxy-7-(4-amino-3-methyl-1-piperidinyl)-4-oxo-quinoline-3-carboxylic acid] | MIC [1, 4]: 0.05 µg/mL (≈ 0.128 µM); MIC [1, 5]: 0.05 µg/mL (≈ 0.128 µM); MIC [1, 6]: 0.2 µg/mL (≈ 0.514 µM) |
| 152 to 154 | CCC1(C)CN(c2c(F)cc3c(=O)c(C(=O)O)cn(C4CC4)c3c2OC)CCC1N (stereo not drawn) [Compound 39, 1-Cyclopropyl-6-fluoro-1,4-dihydro-8-methoxy-7-(4-amino-3-ethyl-3-methyl-1-piperidinyl)-4-oxo-quinoline-3-carboxylic acid] |  |
| 188 to 190 | CCC1CN(c2c(F)cc3c(=O)c(C(=O)O)cn(C4CC4)c3c2OC)CCC1O (stereo not drawn) [Compound 136, 1-Cyclopropyl-6-fluoro-1,4-dihydro-8-methoxy-7-(4-hydroxy-3-ethyl-1-piperidinyl)-4-oxo-quinoline-3-carboxylic acid] |  |
